Source: article PMC2946308, “Sialic acid transport and catabolism are cooperatively regulated by SiaR and CRP in nontypeable Haemophilus influenzae” (BMC Microbiology, 2010)

Biological target: T1, SiaR (Haemophilus influenzae, UniProt P44540)
T1 construct: gene HI_0143; C-terminal His-tag, plasmid pJJ185 (earlier work), expressed in E. coli, tag not reported cut
Experiment: EMSA with nan-siaPT intergenic DNA probe
Format: binding
Details: 100 μM GlcN-6P; co-activator; serial dilutions of SiaR; 15 nM DNA probe; pH 7.4, room temperature

T1 sequence (P44540 whole entry): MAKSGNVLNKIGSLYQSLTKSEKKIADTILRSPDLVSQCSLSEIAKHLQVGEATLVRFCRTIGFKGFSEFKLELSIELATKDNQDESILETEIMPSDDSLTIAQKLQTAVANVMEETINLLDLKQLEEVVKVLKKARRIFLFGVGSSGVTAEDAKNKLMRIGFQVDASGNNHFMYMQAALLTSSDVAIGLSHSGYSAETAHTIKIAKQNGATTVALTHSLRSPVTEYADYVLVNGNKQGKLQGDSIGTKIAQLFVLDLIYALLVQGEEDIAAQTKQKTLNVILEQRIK

N[C@H]1C(O)O[C@H](COP(=O)(O)O)[C@@H](O)[C@@H]1O (stereo partly shown) [GlcN-6P]
EMSA with nan-siaPT intergenic DNA probe: SiaR bound the probe and GlcN-6P slightly increased the binding affinity
